These compounds were tested on rabbit skeletal myofibrils (fast skeletal myofibrils) (assay: Activation of fast skeletal myofibrils (PUMA assay, PK/LDH-coupled ATPase at pCa25)). Details: AC1.4 determined according to the procedure of Example 39; reported as class symbols.
Type: biochemical
Procedure, shortened: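 ATPase activity of Triton-washed rabbit skeletal myofibrils, roughly 90% fast fibres, tracked by NADH loss at 340 nm through a PK/LDH-coupled ADP-regenerating system. Calcium set to 25% of maximal activity (pCa25), in PIPES 12 mM pH 6.8 with 2 mM MgCl2 and 1 mM DTT; AC1.4 reported.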

Compound | Mean AC1.4
COc1cccc(C2(CNc3ccc(-c4ccc5cn[nH]c5c4)nn3)CCC2)n1 [(6-(1H-indazol-6-yl)pyridazin-3-yl){[(6-methoxy(2-pyridyl))cyclobutyl]methyl}amine] | A (A=<1 uM)
CC(C)(CNc1ccc(-c2ccc3[nH]cnc3c2)nn1)c1ccc(F)cc1 [(6-benzimidazol-5-ylpyridazin-3-yl)[2-(4-fluorophenyl)-2-methylpropyl]amine] | A (A=<1 uM)
Fc1cccnc1C1(CNc2ccc(-c3ccc4[nH]cnc4c3)nn2)CCC1 [(6-benzimidazol-5-ylpyridazin-3-yl){[(3-fluoro(2-pyridyl))cyclobutyl]methyl}amine] | A (A=<1 uM)
Fc1cccnc1C1(CNc2ccc(-c3ccc4n[nH]nc4c3)nn2)CCC1 [(6-benzotriazol-6-ylpyridazin-3-yl){[(3-fluoro(2-pyridyl))cyclobutyl]methyl}amine] | A (A=<1 uM)
CCc1ccc(NCC(C)(C)c2ccc(F)cc2)nn1 [(6-ethylpyridazin-3-yl)[2-(4-fluorophenyl)-2-methylpropyl]amine] | C (C=10-20 uM)
CC(C)(CNc1ccc(-c2ccc3[nH]nc(NCCN)c3c2)nn1)c1ccc(F)cc1 [(6-{3-[(2-aminoethyl)amino](1H-indazol-5-yl)}pyridazin-3-yl)[2-(4-fluorophenyl)-2-methylpropyl]amine] | A (A=<1 uM)
NCCNc1n[nH]c2ccc(-c3ccc(NCC4(c5ncccc5F)CCC4)nn3)cc12 [(6-{3-[(2-aminoethyl)amino](1H-indazol-5-yl)}pyridazin-3-yl){[(3-fluoro(2-pyridyl))cyclobutyl]methyl}amine] | A (A=<1 uM)
CC(C)(CNc1ccc(C(=O)NCc2cc[nH]n2)nn1)c1ccc(F)cc1 [(6-{[2-(4-fluorophenyl)-2-methylpropyl]amino}pyridazin-3-yl)-N-(pyrazol-3-ylmethyl)carboxamide] | C (C=10-20 uM)
CC(C)(CNc1ccc(C(=O)NCC2CCC(=O)N2)nn1)c1ccc(F)cc1 (stereo not drawn) [(6-{[2-(4-fluorophenyl)-2-methylpropyl]amino}pyridazin-3-yl)-N-[(5-oxopyrrolidin-2-yl)methyl]carboxamide] | C (C=10-20 uM)
CC(C)(CNc1ccc(C(=O)Nc2ccn[nH]2)nn1)c1ccc(F)cc1 [(6-{[2-(4-fluorophenyl)-2-methylpropyl]amino}pyridazin-3-yl)-N-pyrazol-5-ylcarboxamide] | D (D=>20 uM)

Same assay, conditions: median AC1.4 class, procedure of Example 39

Compound | Mean AC1.4
Fc1cccnc1C1(CNc2ccc(-c3nn[nH]n3)nn2)CCC1 [(6-(2H-1,2,3,4-tetraazol-5-yl)pyridazin-3-yl){[(3-fluoro(2-pyridyl))cyclobutyl]methyl}amine] | D (D=>20 uM)
Fc1cccnc1C1(CNc2ccc(C3CNC3)nn2)CCC1 [(6-azetidin-3-ylpyridazin-3-yl){[(3-fluoro(2-pyridyl))cyclobutyl]methyl}amine] | D (D=>20 uM)
Fc1ccc(C2(Nc3ccc(-c4ccc5[nH]cnc5c4)nn3)CCC2)cc1 [(6-benzimidazol-5-ylpyridazin-3-yl)[(4-fluorophenyl)cyclobutyl]amine] | A (A=<1 uM)
Fc1cccnc1C1(Nc2ccc(-c3ccc4nc[nH]c4c3)nn2)CCC1 [(6-benzimidazol-6-ylpyridazin-3-yl)[(3-fluoro(2-pyridyl))cyclobutyl]amine] | B (B=1-10 uM)
Fc1cccnc1C1(Nc2ccc(C3=CCCCC3)nn2)CCC1 [(6-cyclohex-1-enylpyridazin-3-yl)[(3-fluoro(2-pyridyl))cyclobutyl]amine] | C (C=10-20 uM)
Fc1cccnc1C1(CNc2ccc(C3=CCCCC3)nn2)CCC1 [(6-cyclohex-1-enylpyridazin-3-yl){[(3-fluoro(2-pyridyl))cyclobutyl]methyl}amine] | A (A=<1 uM)
Fc1cccnc1C1(Nc2ccc(C3CCCCC3)nn2)CCC1 [(6-cyclohexylpyridazin-3-yl)[(3-fluoro(2-pyridyl))cyclobutyl]amine] | C (C=10-20 uM)
Fc1cccnc1C1(CNc2ccc(C3CCCCC3)nn2)CCC1 [(6-cyclohexylpyridazin-3-yl){[(3-fluoro(2-pyridyl))cyclobutyl]methyl}amine] | B (B=1-10 uM)
CCc1ccc(NCC2(c3ncccc3F)CCC2)nn1 [(6-ethylpyridazin-3-yl){[(3-fluoro(2-pyridyl))cyclobutyl]meth-yl}amine] | D (D=>20 uM)
O=C(NCc1cnc(-c2ccc(NCC3(c4ncccc4F)CCC3)nn2)s1)[C@H]1CCCN1 [((2R)pyrrolidin-2-yl)-N-({2-[6-({[(3-fluoro(2-pyridyl))cyclobutyl]methyl}ami-no)pyridazin-3-yl](1,3-thiazol-5-yl)}methyl)carboxamide] | A (A=<1 uM)
O=C(NCc1cnc(-c2ccc(NCC3(c4ncccc4F)CCC3)nn2)s1)[C@H]1C[C@@H](F)CN1 [((2R,4R)-4-fluoropyrrolidin-2-yl)-N-({2-[6-({[(3-fluoro(2-pyridyl))cyclobutyl]methyl}ami-no)pyridazin-3-yl](1,3-thiazol-5-yl)}methyl)carboxamide] | A (A=<1 uM)
O=CN1CC(F)(F)C[C@H]1C(=O)NCc1cnc(-c2ccc(NCC3(c4ncccc4F)CCC3)nn2)s1 [((2S)-4,4-difluoro-1-formylpyrrolidin-2-yl)-N-({2-[6-({[(3-fluoro(2-pyridyl))cyclobutyl]methyl}ami-no)pyridazin-3-yl](1,3-thiazol-5-yl)}methyl)carboxamide] | A (A=<1 uM)
O=C(NCc1cnc(-c2ccc(NCC3(c4ncccc4F)CCC3)nn2)s1)[C@@H]1CC(F)(F)CN1 [((2S)-4,4-difluoropyrrolidin-2-yl)-N-({2-[6-({[(3-fluoro(2-pyridyl))cyclobutyl]methyl}ami-no)pyridazin-3-yl](1,3-thiazol-5-yl)}methyl)carboxamide] | A (A=<1 uM)
CC(=O)N1CCN[C@H](C(=O)NCc2cnc(-c3ccc(NCC4(c5ncccc5F)CCC4)nn3)s2)C1 [((2S)-4-acetylpiperazin-2-yl)-N-({2-[6-({[(3-fluoro(2-pyridyl))cyclobutyl]methyl}ami-no)pyridazin-3-yl](1,3-thiazol-5-yl)}methyl)carboxamide] | A (A=<1 uM)
O=C1CC[C@@H](C(=O)NCc2cnc(-c3ccc(NCC4(c5ncccc5F)CCC4)nn3)s2)N1 [((2S)-5-oxopyrrolidin-2-yl)-N-({2-[6-({[(3-fluoro(2-pyridyl))cyclobutyl]methyl}ami-no)pyridazin-3-yl](1,3-thiazol-5-yl)}methyl)carboxamide] | A (A=<1 uM)
O=C(NCc1cnc(-c2ccc(NCC3(c4ncccc4F)CCC3)nn2)s1)[C@@H]1CCCN1 [((2S)pyrrolidin-2-yl)-N-({2-[6-({[(3-fluoro(2-pyridyl))cyclobutyl]methyl}ami-no)pyridazin-3-yl](1,3-thiazol-5-yl)}methyl)carboxamide] | A (A=<1 uM)
CC(C)(CNc1ccc(-c2ncc(CNC(=O)[C@@H]3CCCN3)s2)nn1)c1ncccc1F [((2S)pyrrolidin-2-yl)-N-{[2-(6-{[2-(3-fluoro(2-pyridyl))-2-methylpropyl]amino}pyridazin-3-yl)(1,3-thiazol-5-yl)]methyl}carboxamide] | B (B=1-10 uM)
O=C(NCc1cnc(-c2ccc(NCC3(c4ncccc4F)CCC3)nn2)s1)[C@@H]1CS(=O)(=O)CCN1 [((3R)-1,1-dioxo(1,4-thiazaperhydroin-3-yl))-N-({2-[6-({[(3-fluoro(2-pyridyl))cyclobutyl]methyl}ami-no)pyridazin-3-yl](1,3-thiazol-5-yl)}methyl)carboxamide] | A (A=<1 uM)
O=C(NCc1cnc(-c2ccc(NCC3(c4ncccc4F)CCC3)nn2)s1)[C@H]1CS(=O)(=O)CCN1 [((3S)-1,1-dioxo(1,4-thiazaperhydroin-3-yl))-N-({2-[6-({[(3-fluoro(2-pyridyl))cyclobutyl]methyl}ami-no)pyridazin-3-yl](1,3-thiazol-5-yl)}methyl)carboxamide] | A (A=<1 uM)
O=C1CC[C@H](C(=O)NCc2cnc(-c3ccc(NCC4(c5ncccc5F)CCC4)nn3)s2)CN1 [((3S)-6-oxo(3-piperidyl))-N-({2-[6-({[(3-fluoro(2-pyridyl))cyclobutyl]methyl}ami-no)pyridazin-3-yl](1,3-thiazol-5-yl)}methyl)carboxamide] | A (A=<1 uM)
O=C1NC[C@@H](C(=O)NCc2cnc(-c3ccc(NCC4(c5ncccc5F)CCC4)nn3)s2)N1 [((4S)-2-oxoimidazolidin-4-yl)-N-({2-[6-({[(3-fluoro(2-pyridyl))cyclobutyl]methyl}ami-no)pyridazin-3-yl](1,3-thiazol-5-yl)}methyl)carboxamide] | A (A=<1 uM)
CC(OC(=O)NC(C)(C)C(=O)NCc1cnc(-c2ccc(NCC3(c4ncccc4F)CCC3)nn2)s1)OC(=O)C(C)C (stereo not drawn) [(N-{1-[N-({2-[6-({[(3-fluoro(2-pyridyl))cyclobutyl]methyl}ami-no)pyridazin-3-yl](1,3-thiazol-5-yl)}methyl)carbamoyl]-isopropyl}carbamoyloxy)ethyl 2-methylpropanoate] | A (A=<1 uM)

Same assay, conditions: median AC1.4 reported as class; procedure of Example 39

Compound | Mean AC1.4
O=C(NCc1cnc(-c2ccc(NCC3(c4ncccc4F)CCC3)nn2)s1)[C@@H]1CCN1 [((2S)azetidin-2-yl)-N-({2-[6-({[(3-fluoro(2-pyridyl))cyclobutyl]methyl}ami-no)pyridazin-3-yl](1,3-thiazol-5-yl)}methyl)carboxamide] | A (A=<1 uM)
